According to patent US10786474B2, “Pharmaceutical suspensions containing drug particles, devices for their administration, and methods of their use” (SynAgile Corporation, priority 2015, dated 2020):
≈ marks a conversion by molar mass, not a printed value. Where “and” joins values, the source holds several entries; their conditions need not be identical. Identical values can stand only once. Like-named read-outs stand apart in the source and are kept apart here.

Experiments:
[1] = extended release tablets; various studies; cited from earlier work
[2] = in vivo; cited from earlier work
Solubility of LD = type: physicochemical; details: citrate buffered solution of about pH 4.5, 25° C.
Experimental: LD is poorly soluble in most non-toxic solvents, including water and alcohols. […] LD is even less soluble in alcohols. To deliver a typical daily dose of 1,000 mg approximately 150 mL of saturated LD aqueous solution would be required, which is incompatible with the volume requirements for a drug delivery device placed in the mouth.

[3] = assumed for dissolution of orally delivered solid LD in saliva; cited from earlier work

For `NC(=O)N1c2ccccc2C=Cc2ccccc21` [Carbamazepine], the “Fluctuation Index” value [1] is listed as 0.31 and 0.26 and 0.47 and 0.49.
In the case of `CCN(CC)C(=O)/C(C#N)=C/c1cc(O)c(O)c([N+](=O)[O-])c1` [Entacapone], the “crossing of the blood-brain barrier” value [2] is listed as “does not cross the blood-brain barrier”, the physiological half-life [2] is listed as “less than 1 hour” and the plasma half-life [2] is listed as 0.4 to 0.7 h.
In the case of `N[C@@H](Cc1ccc(O)c(O)c1)C(=O)O` [LD, levodopa], the solubility (Solubility of LD; aqueous buffer, read-out: solubility) is given as roughly 34 mM (≈ 6700 µg/mL), the solubility (Solubility of LD) is given as “about 0.68 g/100 mL” and the solubility [3] is given as “about 50 mg/mL”.
In the case of `CC[C@@H](C(N)=O)N1CCCC1=O` [Levetiracetam], the “Fluctuation Index” value [1] is given as 1.19 and 1.27.
For `Cc1ccc(C(=O)c2cc(O)c(O)c([N+](=O)[O-])c2)cc1` [Tolcapone], the “crossing of the blood-brain barrier” value [2] is given as “crosses the barrier”, the hepatotoxicity [2] is given as “limited by its hepatotoxicity” and the plasma half-life [2] is given as 2 to 3 h.
